This is an account of results in patent US10717716B2, “1,3,4-oxadiazole derivative compounds as histone deacetylase 6 inhibitor, and the pharmaceutical composition comprising the same” (Chong Kun Dang Pharmaceutical Corp., priority 2015, dated 2020).

In one assay the target is T1, human recombinant HDAC1 (Homo sapiens, UniProt Q13547).
T1 construct: purchased Enzo Life Science BML-SE456
Briefly: HDAC1 enzyme activity inhibition assay (HDAC Fluorimetric Drug Discovery Kit). In kind it is biochemical. As to conditions: human recombinant HDAC1, Fluor de Lys substrate 10 μM, 30° C. 60 minutes. In a few lines: (§1)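 Human recombinant HDAC1 or HDAC6 (0.3 μg) reacted with 10 μM Fluor de Lys-SIRT1 substrate and 5-fold compound dilutions for 60 min at 30 °C. Developer II added for 30 min, fluorescence read at Ex 360/Em 460; IC50 calculated from the readings.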

In the next assay the target is T2, human recombinant HDAC6 (Homo sapiens, UniProt Q9UBN7).
T2 construct: purchased Calbiochem 382180
T2 sequence (Q9UBN7 1-1215): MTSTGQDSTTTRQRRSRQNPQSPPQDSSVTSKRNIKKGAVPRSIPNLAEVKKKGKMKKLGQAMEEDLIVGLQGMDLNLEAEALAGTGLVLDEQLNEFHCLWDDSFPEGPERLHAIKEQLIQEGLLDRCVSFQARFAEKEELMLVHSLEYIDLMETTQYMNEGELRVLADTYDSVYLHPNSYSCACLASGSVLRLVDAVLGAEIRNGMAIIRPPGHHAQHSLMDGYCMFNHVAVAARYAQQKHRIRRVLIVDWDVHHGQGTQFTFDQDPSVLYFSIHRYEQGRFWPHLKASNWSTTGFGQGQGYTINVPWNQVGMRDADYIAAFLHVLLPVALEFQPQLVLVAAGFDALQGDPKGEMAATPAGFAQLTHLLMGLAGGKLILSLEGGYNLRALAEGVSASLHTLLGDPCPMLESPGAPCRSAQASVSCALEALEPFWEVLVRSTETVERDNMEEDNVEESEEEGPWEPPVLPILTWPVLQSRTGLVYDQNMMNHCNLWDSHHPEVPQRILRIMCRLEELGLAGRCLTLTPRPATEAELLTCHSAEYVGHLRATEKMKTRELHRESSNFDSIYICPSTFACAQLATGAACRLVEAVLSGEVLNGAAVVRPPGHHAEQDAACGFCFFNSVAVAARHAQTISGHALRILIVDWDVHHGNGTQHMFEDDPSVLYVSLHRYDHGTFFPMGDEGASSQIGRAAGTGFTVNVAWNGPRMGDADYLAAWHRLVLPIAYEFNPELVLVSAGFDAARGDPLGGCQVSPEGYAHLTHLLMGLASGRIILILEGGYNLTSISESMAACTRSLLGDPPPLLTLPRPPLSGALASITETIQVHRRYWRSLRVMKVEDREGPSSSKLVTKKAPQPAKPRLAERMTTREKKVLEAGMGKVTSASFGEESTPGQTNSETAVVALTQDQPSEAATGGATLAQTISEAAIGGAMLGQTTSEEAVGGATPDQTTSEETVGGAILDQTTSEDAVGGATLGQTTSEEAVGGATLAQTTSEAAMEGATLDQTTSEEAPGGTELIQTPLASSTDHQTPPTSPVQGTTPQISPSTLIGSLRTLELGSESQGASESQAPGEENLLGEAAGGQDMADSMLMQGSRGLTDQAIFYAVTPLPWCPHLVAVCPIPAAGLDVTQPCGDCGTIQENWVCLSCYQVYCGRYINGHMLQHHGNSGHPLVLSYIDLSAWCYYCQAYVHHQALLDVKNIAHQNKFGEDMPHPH
Briefly: HDAC6 enzyme activity inhibition assay (HDAC Fluorimetric Drug Discovery Kit). Conditions: for HDAC6 selectivity (fold): HDAC6 over HDAC1; for IC50: human recombinant HDAC6, same protocol as HDAC1, read-out: HDAC6. In kind it is biochemical. In a few lines: as §1

T1 sequence (Q13547 whole entry): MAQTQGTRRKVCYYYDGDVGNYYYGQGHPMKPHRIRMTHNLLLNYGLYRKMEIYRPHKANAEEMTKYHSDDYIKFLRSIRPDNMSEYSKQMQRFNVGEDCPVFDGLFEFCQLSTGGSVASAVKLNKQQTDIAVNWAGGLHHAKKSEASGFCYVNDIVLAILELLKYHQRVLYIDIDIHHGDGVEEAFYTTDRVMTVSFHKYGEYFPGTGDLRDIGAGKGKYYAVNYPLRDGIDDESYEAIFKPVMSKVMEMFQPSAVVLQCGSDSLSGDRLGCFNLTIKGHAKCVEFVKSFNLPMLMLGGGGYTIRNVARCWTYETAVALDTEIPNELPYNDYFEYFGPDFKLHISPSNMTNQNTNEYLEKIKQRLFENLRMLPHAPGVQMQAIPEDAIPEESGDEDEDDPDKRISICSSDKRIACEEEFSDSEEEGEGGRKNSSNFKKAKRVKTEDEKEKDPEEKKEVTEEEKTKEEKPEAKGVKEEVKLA

Take `O=C(N1CCS(=O)(=O)CC1)N(Cc1ccc(-c2nnc(C(F)F)o2)cc1F)c1cccc(Cl)c1` [Compound 21810, N-(3-chlorophenyl)-N-(4-(5-(difluoromethyl)-1,3,4-oxadiazol-2-yl)-2-fluorobenzyl)thiomorpholine-4-carboxamide 1,1-dioxide]: the IC50 at human recombinant HDAC1 turned out to be 15.7 µM. At human recombinant HDAC6, the “HDAC6 selectivity (fold)” value is listed as 883 fold and the IC50 was found to be 0.018 µM.
In the same order, the values of `O=C(N1CCS(=O)(=O)CC1)N(Cc1ccc(-c2nnc(C(F)F)o2)cn1)c1ccc(-c2ccncc2)cc1` [Compound 21823, N-((5-(5-(difluoromethyl)-1,3,4-oxadiazol-2-yl)pyridin-2-yl)methyl)-N-(4-(pyridin-4-yl)phenyl)thiomorpholine-4-carboxamide 1,1-dioxide] are 20.8 µM, 370 fold and 0.056 µM.
For `O=C(N1CCS(=O)(=O)CC1)N(Cc1ccc(-c2nnc(C(F)F)o2)cn1)c1ccc(-c2cccnc2)cc1` [Compound 21824, N-((5-(5-(difluoromethyl)-1,3,4-oxadiazol-2-yl)pyridin-2-yl)methyl)-N-(4-(pyridin-3-yl)phenyl)thiomorpholine-4-carboxamide 1,1-dioxide] the same measures were 17.7 µM, 563 fold and 0.031 µM.
For `O=C(N1CCS(=O)(=O)CC1)N(Cc1ccc(-c2nnc(C(F)F)o2)cn1)c1ccc(F)cc1` [Compound 21829, N-((5-(5-(difluoromethyl)-1,3,4-oxadiazol-2-yl)pyridin-2-yl)methyl)-N-(4-fluorophenyl)thiomorpholine-4-carboxamide 1,1-dioxide] the same measures were 47 µM, 1542 fold and 0.031 µM.
In the case of `O=C(N1CCS(=O)(=O)CC1)N(Cc1ccc(-c2nnc(C(F)F)o2)cn1)c1cccc(F)c1` [Compound 21830, N-((5-(5-(difluoromethyl)-1,3,4-oxadiazol-2-yl)pyridin-2-yl)methyl)-N-(3-fluorophenyl)thiomorpholine-4-carboxamide 1,1-dioxide], the IC50 at human recombinant HDAC1 worked out at 40.9 µM. In addition, on human recombinant HDAC6, the “HDAC6 selectivity (fold)” value is 1298 fold and the IC50 was found to be 0.032 µM.
Turning to `O=C(N1CCS(=O)(=O)CC1)N(Cc1ccc(-c2nnc(C(F)F)o2)cn1)c1ccc(Cl)cc1` [Compound 21831, N-(4-chlorophenyl)-N-((5-(5-(difluoromethyl)-1,3,4-oxadiazol-2-yl)pyridin-2-yl)methyl)thiomorpholine-4-carboxamide 1,1-dioxide], on human recombinant HDAC1, the IC50 came to 64.4 µM. For the same compound, at human recombinant HDAC6, the “HDAC6 selectivity (fold)” value stood at 1538 fold and the IC50 was determined as 0.042 µM.
For `O=C(N1CCOCC1)N(Cc1ccc(-c2nnc(C(F)F)o2)cn1)c1ccc(F)cc1` [Compound 21839, N-((5-(5-(difluoromethyl)-1,3,4-oxadiazol-2-yl)pyridin-2-yl)methyl)-N-(4-fluorophenyl) morpholine-4-carboxamide] the same measures were 56.7 µM, 1689 fold and 0.034 µM.
In the same order, the values of `O=C(N1CCOCC1)N(Cc1ccc(-c2nnc(C(F)(F)F)o2)cn1)c1ccc(F)cc1` [Compound 21840, N-(4-fluorophenyl)-N-((5-(5-(trifluoromethyl)-1,3,4-oxadiazol-2-yl)pyridin-2-yl)methyl) morpholine-4-carboxamide] are 31.9 µM, 170 fold and 0.188 µM.
In the case of `O=C(N1CCOCC1)N(Cc1ccc(-c2nnc(C(F)(F)F)o2)cc1F)c1ccc(F)cc1` [Compound 21842, N-(2-fluoro-4-(5-(trifluoromethyl)-1,3,4-oxadiazol-2-yl)benzyl)-N-(4-fluorophenyl)morpholine-4-carboxamide], the IC50 on human recombinant HDAC1 was 25.2 µM. Besides, at human recombinant HDAC6, the “HDAC6 selectivity (fold)” value came out at 135 fold and the IC50 was found to be 0.187 µM.
For `O=C(N1CCOCC1)N(Cc1ccc(-c2nnc(C(F)(F)F)o2)cn1)c1cccc(F)c1` [Compound 21844, N-(3-fluorophenyl)-N-((5-(5-(trifluoromethyl)-1,3,4-oxadiazol-2-yl)pyridin-2-yl)methyl) morpholine-4-carboxamide] the same measures were 32.3 µM, 404 fold and 0.08 µM.
For `O=C(N1CCOCC1)N(Cc1ccc(-c2nnc(C(F)F)o2)cc1F)c1cccc(F)c1` [Compound 21845, N-(4-(5-(difluoromethyl)-1,3,4-oxadiazol-2-yl)-2-fluorobenzyl)-N-(3-fluorophenyl)morpholine-4-carboxamide] the same measures were 62.3 µM, 1919 fold and 0.032 µM.
In the same order, the values of `O=C(N1CCOCC1)N(Cc1ccc(-c2nnc(C(F)(F)F)o2)cc1F)c1cccc(F)c1` [Compound 21846, N-(2-fluoro-4-(5-(trifluoromethyl)-1,3,4-oxadiazol-2-yl)benzyl)-N-(3-fluorophenyl)morpholine-4-carboxamide] are 21.3 µM, 173 fold and 0.123 µM.
Regarding `O=C(N1CCOCC1)N(Cc1ccc(-c2nnc(C(F)F)o2)cn1)c1ccc(Cl)cc1` [Compound 21847, N-(4-chlorophenyl)-N-((5-(5-(difluoromethyl)-1,3,4-oxadiazol-2-yl)pyridin-2-yl)methyl) morpholine-4-carboxamide], at human recombinant HDAC1, the IC50 is 70.2 µM. Also, on human recombinant HDAC6, the “HDAC6 selectivity (fold)” value is 1811 fold and the IC50 was found to be 0.039 µM.
Turning to `O=C(N1CCOCC1)N(Cc1ccc(-c2nnc(C(F)(F)F)o2)cn1)c1ccc(Cl)cc1` [Compound 21848, N-(4-chlorophenyl)-N-((5-(5-(trifluoromethyl)-1,3,4-oxadiazol-2-yl)pyridin-2-yl)methyl) morpholine-4-carboxamide], the IC50 was 41.9 µM on human recombinant HDAC1 and 0.261 µM on human recombinant HDAC6. Also, the “HDAC6 selectivity (fold)” value at human recombinant HDAC6 is 161 fold.
For `O=C(N1CCOCC1)N(Cc1ccc(-c2nnc(C(F)(F)F)o2)cc1F)c1ccc(Cl)cc1` [Compound 21850, N-(4-chlorophenyl)-N-(2-fluoro-4-(5-(trifluoromethyl)-1,3,4-oxadiazol-2-yl)benzyl)morpholine-4-carboxamide] the same measures were 68.6 µM, 0.436 µM and 157 fold.
In the same order, the values of `O=C(N1CCOCC1)N(Cc1ccc(-c2nnc(C(F)(F)F)o2)cn1)c1cccc(Cl)c1` [Compound 21852, N-(3-chlorophenyl)-N-((5-(5-(trifluoromethyl)-1,3,4-oxadiazol-2-yl)pyridin-2-yl)methyl) morpholine-4-carboxamide] are 15.3 µM, 0.131 µM and 118 fold.
In the same order, the values of `O=C(N1CCOCC1)N(Cc1ccc(-c2nnc(C(F)F)o2)cc1F)c1cccc(Cl)c1` [Compound 21853, N-(3-chlorophenyl)-N-(4-(5-(difluoromethyl)-1,3,4-oxadiazol-2-yl)-2-fluorobenzyl)morpholine-4-carboxamide] are 28.8 µM, 0.053 µM and 540 fold.
Consider `O=C(N1CCOCC1)N(Cc1ccc(-c2nnc(C(F)(F)F)o2)cc1F)c1cccc(Cl)c1` [Compound 21854, N-(3-chlorophenyl)-N-(2-fluoro-4-(5-(trifluoromethyl)-1,3,4-oxadiazol-2-yl)benzyl)morpholine-4-carboxamide], for which the IC50 on human recombinant HDAC1 was 12.7 µM. Further, at human recombinant HDAC6, the “HDAC6 selectivity (fold)” value was found to be 46 fold and the IC50 was found to be 0.276 µM.
In the case of `O=C(N1CCOCC1)N(Cc1ccc(-c2nnc(C(F)(F)F)o2)cn1)c1ccc(F)cc1F` [Compound 21857, N-(2,4-difluorophenyl)-N-((5-(5-(trifluoromethyl)-1,3,4-oxadiazol-2-yl)pyridin-2-yl)methyl)morpholine-4-carboxamide], the figures for the IC50 at human recombinant HDAC1 and at human recombinant HDAC6 were 23.9 µM and 0.131 µM, respectively. Besides, on human recombinant HDAC6, the “HDAC6 selectivity (fold)” value is on record as 182 fold.
